How the values were obtained:
Format in all cases: functional
[1] = Cytotoxicity against human Hs578T cells assessed as cell growth at 10^-4 M after 48 hrs by SRB assay; conditions: Hs-578T, read-out: Activity
[2] = test system: MCF7; experiment: Cytotoxicity against human MCF7 cells assessed as cell growth at 10^-4 M after 48 hrs by SRB assay; conditions: MCF7, 48 h, read-out: Activity
[3] = test system: TK-10; experiment: Cytotoxicity against human TK10 cells assessed as cell growth at 10^-4 M after 48 hrs by SRB assay; conditions: TK-10, 48 h, read-out: Activity
[4] = Cytotoxicity against human UO31 cells assessed as cell growth at 10^-4 M after 48 hrs by SRB assay; conditions: UO-31, 48 h, read-out: Activity
[5] = test system: SF-539; experiment: Cytotoxicity against human SF539 cells assessed as cell growth at 10^-7 M after 48 hrs by SRB assay; conditions: SF-539, 48 h, read-out: Activity
[6] = test system: HCT-116; experiment: Cytotoxicity against human HCT116 cells assessed as cell growth at 10^-7 M after 48 hrs by SRB assay; conditions: HCT-116, 48 h, read-out: Activity
[7] = test system: HCC 2998; experiment: Cytotoxicity against human HCC2998 cells assessed as cell growth at 10^-7 M after 48 hrs by SRB assay; conditions: HCC 2998, 48 h, read-out: Activity
[8] = test system: COLO 205; experiment: Cytotoxicity against human COLO205 cells assessed as cell growth at 10^-7 M after 48 hrs by SRB assay; conditions: COLO 205, 48 h, read-out: Activity
[9] = test system: NCI-H23; experiment: Cytotoxicity against human NCI-H23 cells assessed as cell growth at 10^-7 M after 48 hrs by SRB assay; conditions: NCI-H23, 48 h, read-out: Activity
[10] = test system: NCI-H226; experiment: Cytotoxicity against human NCI-H226 cells assessed as cell growth at 10^-7 M after 48 hrs by SRB assay; conditions: NCI-H226, 48 h, read-out: Activity
[11] = test system: MDA-MB-468; experiment: Cytotoxicity against human MDA-MB-468 cells assessed as cell growth at 10^-8 M after 48 hrs by SRB assay; conditions: MDA-MB-468, 48 h, read-out: Activity
[12] = test system: ACHN; experiment: Cytotoxicity against human ACHN cells assessed as cell growth at 10^-4 M after 48 hrs by SRB assay; conditions: read-out: Activity
[13] = test system: SK-MEL-2; experiment: Cytotoxicity against human SK-MEL-2 cells assessed as cell growth at 10^-4 M after 48 hrs by SRB assay; conditions: SK-MEL-2, 48 h, read-out: Activity
[14] = test system: U-251; experiment: Cytotoxicity against human U251 cells assessed as cell growth at 10^-4 M after 48 hrs by SRB assay; conditions: U-251, 48 h, read-out: Activity
[15] = test system: SW-620; experiment: Cytotoxicity against human SW620 cells assessed as cell growth at 10^-4 M after 48 hrs by SRB assay; conditions: SW-620, 48 h, read-out: Activity
[16] = test system: HCC 2998; experiment: Cytotoxicity against human HCC2998 cells assessed as cell growth at 10^-4 M after 48 hrs by SRB assay; conditions: HCC 2998, 48 h, read-out: Activity
[17] = test system: NCI-H522; experiment: Cytotoxicity against human NCI-H522 cells assessed as cell growth at 10^-4 M after 48 hrs by SRB assay; conditions: NCI-H522, 48 h, read-out: Activity
[18] = test system: RPMI-8226; experiment: Cytotoxicity against human RPMI8226 cells assessed as cell growth at 10^-4 M after 48 hrs by SRB assay; conditions: RPMI-8226, 48 h, read-out: Activity
[19] = test system: ACHN; experiment: Cytotoxicity against human ACHN cells assessed as cell growth at 10^-8 M after 48 hrs by SRB assay; conditions: read-out: Activity
[20] = test system: CAKI-1; experiment: Cytotoxicity against human Caki1 cells assessed as cell growth at 10^-8 M after 48 hrs by SRB assay; conditions: CAKI-1, 48 h, read-out: Activity
[21] = test system: IGROV-1; experiment: Cytotoxicity against human IGROV1 cells assessed as cell growth at 10^-8 M after 48 hrs by SRB assay; conditions: IGROV-1, 48 h, read-out: Activity
[22] = test system: SF-268; experiment: Cytotoxicity against human SF268 cells assessed as cell growth at 10^-8 M after 48 hrs by SRB assay; conditions: SF-268, 48 h, read-out: Activity
[23] = test system: KM12; experiment: Cytotoxicity against human KM12 cells assessed as cell growth at 10^-8 M after 48 hrs by SRB assay; conditions: KM12, 48 h, read-out: Activity
[24] = test system: HCT-116; experiment: Cytotoxicity against human HCT116 cells assessed as cell growth at 10^-8 M after 48 hrs by SRB assay; conditions: HCT-116, 48 h, read-out: Activity
[25] = test system: NCI-H226; experiment: Cytotoxicity against human NCI-H226 cells assessed as cell growth at 10^-8 M after 48 hrs by SRB assay; conditions: NCI-H226, 48 h, read-out: Activity
[26] = test system: K562; experiment: Cytotoxicity against human K562 cells assessed as cell growth at 10^-8 M after 48 hrs by SRB assay; conditions: K562, 48 h, read-out: Activity
[27] = test system: T47D; experiment: Cytotoxicity against human T47D cells assessed as growth inhibition at 10 uM after 48 hrs by SRB assay; conditions: read-out: GI
[28] = test system: PC-3; experiment: Cytotoxicity against human PC3 cells after 48 hrs by SRB assay; conditions: PC-3, 48 h
[29] = Cytotoxicity against human NCI-ADR-RES cells after 48 hrs by SRB assay
[30] = test system: SK-MEL-28; experiment: Cytotoxicity against human SK-MEL-28 cells after 48 hrs by SRB assay; conditions: SK-MEL-28, 48 h
[31] = test system: U-251; experiment: Cytotoxicity against human U251 cells after 48 hrs by SRB assay; conditions: U-251, 48 h
[32] = test system: CAKI-1; experiment: Cytotoxicity against human Caki1 cells assessed as cell growth at 10^-6 M after 48 hrs by SRB assay; conditions: CAKI-1, 48 h, read-out: Activity
[33] = Cytotoxicity against human OVCAR4 cells assessed as cell growth at 10^-6 M after 48 hrs by SRB assay; conditions: OVCAR-4, 48 h, read-out: Activity
[34] = test system: UACC-62; experiment: Cytotoxicity against human UACC62 cells assessed as cell growth at 10^-6 M after 48 hrs by SRB assay; conditions: UACC-62, 48 h, read-out: Activity
[35] = test system: COLO 205; experiment: Cytotoxicity against human COLO205 cells assessed as cell growth at 10^-6 M after 48 hrs by SRB assay; conditions: COLO 205, 48 h, read-out: Activity
[36] = test system: SR; experiment: Cytotoxicity against human SR cells assessed as cell growth at 10^-6 M after 48 hrs by SRB assay; conditions: read-out: Activity
[37] = test system: CCRF-CEM; experiment: Cytotoxicity against human CCRF-CEM cells assessed as cell growth at 10^-6 M after 48 hrs by SRB assay; conditions: read-out: Activity
[38] = test system: ACHN; experiment: Cytotoxicity against human ACHN cells assessed as cell growth at 10^-7 M after 48 hrs by SRB assay; conditions: read-out: Activity
[39] = test system: 786-0; experiment: Cytotoxicity against human 786-0 cells assessed as cell growth at 10^-7 M after 48 hrs by SRB assay; conditions: 786-0, 48 h, read-out: Activity
[40] = read-out: LC50 (the source's name)

## C=CCn1c(C)nc2ccc(Nc3nc(Nc4ccc(F)cc4)nc4ccccc34)cc21
[1]
  growth at 100 µM: -16%
[2]
  growth at 100 µM: -37%
[3]
  growth at 100 µM: -63%
[4]
  growth at 100 µM: -82%
[5]
  growth at 0.1 µM: 98%
[6]
  growth at 0.1 µM: 97%
[7]
  growth at 0.1 µM: 97%
[8]
  growth at 0.1 µM: 103%
[9]
  growth at 0.1 µM: 87%
[10]
  growth at 0.1 µM: 93%
[11]
  growth at 0.01 µM: 78%
[12]
  growth at 100 µM: -73%
[13]
  growth at 100 µM: -70%
[14]
  growth at 100 µM: -80%
[15]
  growth at 100 µM: -48%
[16]
  growth at 100 µM: -80%
[17]
  growth at 100 µM: -58%
[18]
  growth at 100 µM: -36%
[19]
  growth at 0.01 µM: 98%
[20]
  growth at 0.01 µM: 100%
[21]
  growth at 0.01 µM: 95%
[22]
  growth at 0.01 µM: 88%
[23]
  growth at 0.01 µM: 95%
[24]
  growth at 0.01 µM: 99%
[25]
  growth at 0.01 µM: 92%
[26]
  growth at 0.01 µM: 102%
[27]
  inhibition of growth at 10 µM: 50%
[28]
  GI50: 3140 nM
  TGI: 14700 nM
[28]; [40]
  CC50: 49.7 µM
[29]
  GI50: 4010 nM
  LC50: > 100 µM
  TGI: 37.7 µM
[30]
  GI50: 1650 nM
  LC50: 5.94 µM
  TGI: 3.13 µM
[31]
  GI50: 3150 nM
  TGI: 14900 nM
[31]; [40]
  CC50: 48.9 µM
[32]
  growth at 1 µM: 93%
[33]
  growth at 1 µM: 85%
[34]
  growth at 1 µM: 91%
[35]
  growth at 1 µM: 95%
[36]
  growth at 1 µM: 92%
[37]
  growth at 1 µM: 94%
[38]
  growth at 0.1 µM: 97%
[39]
  growth at 0.1 µM: 98%

## C=CCn1c(C)nc2ccc(Nc3nc(Sc4ccc(N)cc4)nc4ccccc34)cc21
[27]
  inhibition of growth at 10 µM: 30%

## C=CCn1c(C)nc2ccc(Nc3nc(Nc4ncccn4)nc4ccccc34)cc21
[27]
  inhibition of growth at 10 µM: 40%

## C=CCn1c(C)nc2cc(Nc3nc(NCCO)nc4ccccc34)ccc21
[27]
  inhibition of growth at 10 µM: 30%

## C=CCn1c(C)nc2ccc(Nc3nc(Nc4ccc5nc(C)n(CC=C)c5c4)c4ccccc4n3)cc21
[1]
  growth at 100 µM: -15%
[2]
  growth at 100 µM: -22%
[3]
  growth at 100 µM: -49%
[4]
  growth at 100 µM: -46%
[5]
  growth at 0.1 µM: 94%
[6]
  growth at 0.1 µM: 99%
[7]
  growth at 0.1 µM: 101%
[8]
  growth at 0.1 µM: 101%
[9]
  growth at 0.1 µM: 91%
[10]
  growth at 0.1 µM: 86%
[11]
  growth at 0.01 µM: 93%
[12]
  growth at 100 µM: -69%
[13]
  growth at 100 µM: -25%
[14]
  growth at 100 µM: -22%
[15]
  growth at 100 µM: -17%
[16]
  growth at 100 µM: -53%
[17]
  growth at 100 µM: -15%
[18]
  growth at 100 µM: 5%
[19]
  growth at 0.01 µM: 103%
[20]
  growth at 0.01 µM: 93%
[21]
  growth at 0.01 µM: 100%
[22]
  growth at 0.01 µM: 90%
[23]
  growth at 0.01 µM: 96%
[24]
  growth at 0.01 µM: 108%
[25]
  growth at 0.01 µM: 90%
[26]
  growth at 0.01 µM: 96%
[28]
  GI50: 1370 nM
  TGI: 2900 nM
[29]
  GI50: 2220 nM
  LC50: > 100 µM
  TGI: 6.07 µM
[30]
  GI50: 1840 nM
  TGI: 3.28 µM
[31]
  GI50: 1620 nM
  TGI: 2970 nM
[32]
  growth at 1 µM: 90%
[33]
  growth at 1 µM: 84%
[34]
  growth at 1 µM: 86%
[35]
  growth at 1 µM: 78%
[36]
  growth at 1 µM: 72%
[37]
  growth at 1 µM: 82%
[38]
  growth at 0.1 µM: 92%
[39]
  growth at 0.1 µM: 98%

## C=CCn1c(C)nc2cc(Nc3nc(Nc4ccc5nc(C)n(CC=C)c5c4)c4ccccc4n3)ccc21
[1]
  growth at 100 µM: -21%
[2]
  growth at 100 µM: 3%
[3]
  growth at 100 µM: -63%
[4]
  growth at 100 µM: -56%
[5]
  growth at 0.1 µM: 101%
[6]
  growth at 0.1 µM: 102%
[7]
  growth at 0.1 µM: 100%
[8]
  growth at 0.1 µM: 101%
[9]
  growth at 0.1 µM: 93%
[10]
  growth at 0.1 µM: 82%
[11]
  growth at 0.01 µM: 106%
[12]
  growth at 100 µM: -38%
[13]
  growth at 100 µM: -17%
[14]
  growth at 100 µM: -31%
[15]
  growth at 100 µM: -8%
[16]
  growth at 100 µM: -88%
[17]
  growth at 100 µM: -24%
[18]
  growth at 100 µM: -20%
[19]
  growth at 0.01 µM: 105%
[20]
  growth at 0.01 µM: 94%
[21]
  growth at 0.01 µM: 103%
[22]
  growth at 0.01 µM: 95%
[23]
  growth at 0.01 µM: 96%
[24]
  growth at 0.01 µM: 106%
[25]
  growth at 0.01 µM: 93%
[26]
  growth at 0.01 µM: 103%
[28]
  GI50: 305 nM
  TGI: 1020 nM
[29]
  GI50: 1840 nM
  LC50: > 100 µM
  TGI: 4.43 µM
[30]
  GI50: 2020 nM
  TGI: 3.86 µM
[31]
  GI50: 177 nM
  TGI: 331 nM
[32]
  growth at 1 µM: 88%
[33]
  growth at 1 µM: -16%
[34]
  growth at 1 µM: 66%
[35]
  growth at 1 µM: -75%
[36]
  growth at 1 µM: -23%
[37]
  growth at 1 µM: -14%
[38]
  growth at 0.1 µM: 103%
[39]
  growth at 0.1 µM: 98%
